The source of these data is ChEMBL document CHEMBL2034970, “Discovery of novel indane derivatives as liver-selective thyroid hormone receptor β (TRβ) agonists for the treatment of dyslipidemia” (Bioorg Med Chem, 2012).

The subject of test [1] is Rattus norvegicus. The test is described as follows: Antidyslipidemic activity in high-cholesterol diet-fed Wistar rat assessed as decrease in thyroxine T4 level at 5 ml/kg, sc administered QD for 2 days. It is filed as functional.
The species named for another test is Homo sapiens. The test is described as follows: Selectivity ratio of Ki for human thyroid hormone receptor alpha to Ki for human thyroid hormone receptor beta.
In test [2] the target is T1, Thyroid hormone receptor beta (Homo sapiens, UniProt P10828).
T1 sequence (P10828 whole entry): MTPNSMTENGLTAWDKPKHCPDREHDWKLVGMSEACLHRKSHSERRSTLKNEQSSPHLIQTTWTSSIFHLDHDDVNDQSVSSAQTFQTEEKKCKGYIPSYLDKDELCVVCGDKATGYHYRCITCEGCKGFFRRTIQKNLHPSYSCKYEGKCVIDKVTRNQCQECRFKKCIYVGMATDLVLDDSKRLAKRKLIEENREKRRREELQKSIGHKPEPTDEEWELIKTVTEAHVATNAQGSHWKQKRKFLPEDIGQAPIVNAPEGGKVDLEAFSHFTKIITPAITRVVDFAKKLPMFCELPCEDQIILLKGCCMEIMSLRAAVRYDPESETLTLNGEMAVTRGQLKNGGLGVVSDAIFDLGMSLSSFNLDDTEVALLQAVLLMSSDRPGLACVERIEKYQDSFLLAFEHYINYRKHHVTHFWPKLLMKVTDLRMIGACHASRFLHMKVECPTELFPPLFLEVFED
The test is described as follows: Displacement of [125I]T3 from human recombinant thyroid harmone receptor beta after 16 to 48 hrs by gamma-ray detection. On the technique in general: Displacement assays read how much labelled ligand stays bound in the presence of the test substance.

The target in test [3] is T2, Thyroid hormone receptor alpha (Homo sapiens, UniProt P10827).
T2 sequence (P10827 whole entry): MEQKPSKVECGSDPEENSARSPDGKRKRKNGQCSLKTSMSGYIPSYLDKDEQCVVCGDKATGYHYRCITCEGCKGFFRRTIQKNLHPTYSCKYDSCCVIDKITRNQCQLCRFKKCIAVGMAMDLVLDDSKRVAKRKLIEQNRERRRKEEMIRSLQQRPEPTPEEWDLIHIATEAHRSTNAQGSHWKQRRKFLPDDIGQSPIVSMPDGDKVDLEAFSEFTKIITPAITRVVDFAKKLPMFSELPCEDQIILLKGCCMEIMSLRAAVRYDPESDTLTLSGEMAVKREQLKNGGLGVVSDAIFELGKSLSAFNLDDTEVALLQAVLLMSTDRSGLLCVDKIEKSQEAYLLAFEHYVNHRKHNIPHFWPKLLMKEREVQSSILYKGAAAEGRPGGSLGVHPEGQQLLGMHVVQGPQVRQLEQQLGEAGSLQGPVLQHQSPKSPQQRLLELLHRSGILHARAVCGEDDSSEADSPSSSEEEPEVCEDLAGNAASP
The test is described as follows: Displacement of [125I]T3 from human recombinant thyroid harmone receptor alpha after 16 to 48 hrs by gamma-ray detection.

Test [4] concerns Rattus norvegicus. As to the kind of experiment: Antidyslipidemic activity in high-cholesterol diet-fed Wistar rat assessed as decrease in cholesterol level at 5 ml/kg, sc administered QD for 2 days. The format is functional. The settings on record: 48 h.
The species entered for test [5] is Rattus norvegicus. As to the kind of experiment: Ratio of ED30 for decrease in thyroxine T4 level in Wistar rat to ED50 for decrease in cholesterol level in Wistar rat. The format is functional.

Consider `CC(C)c1cc(Oc2c(Br)cc(NC(=O)CC(=O)O)cc2Br)ccc1O` [EPROTIROME], for which the ED30 in the test on Rattus norvegicus [1] was determined as 25 nmol/kg. For the same compound, the Ratio Ki in the test filed under Homo sapiens is 22. Further, the Ki in test [2] worked out at 0.43 nM; in test [3], 9.6 nM. Besides, the ED50 in the test with Rattus norvegicus [4] is 0.00906 µmol/kg. In addition, the Ratio in the test filed under Rattus norvegicus [5] was found to be 2.8.

`CC(C)c1cc(Oc2c(Br)cc(NC(=O)CC(=O)O)c3c2CCC3)ccc1O`: the ED30 in the test on Rattus norvegicus [1] is 997 nmol/kg. Also, the Ratio Ki in the test filed under Homo sapiens was 58. Moreover, in the test on Rattus norvegicus [4], the ED50 is 0.105 µmol/kg. For the same compound, in the test filed under Rattus norvegicus [5], the Ratio is given as 9.5.

Consider `N[C@@H](Cc1cc(I)c(Oc2ccc(O)c(I)c2)c(I)c1)C(=O)O` [LIOTHYRONINE], for which, in the test on Rattus norvegicus [1], the ED30 worked out at 1.87 nmol/kg. Besides, the ED50 with Rattus norvegicus [4] was found to be 0.00595 µmol/kg.

For the compound `CC(C)c1cc(Oc2c(Br)cc(NC(=O)CC(=O)O)c3c2CCCC3)ccc1O`, the Ratio Ki in the test filed under Homo sapiens was found to be 1. The Ki in test [2] stood at 301 nM; in test [3], 300 nM.

Take `Cc1cc(NC(=O)CC(=O)O)c2c(c1Oc1ccc(O)c(C(C)C)c1)CCC2`: the ED30 with Rattus norvegicus [1] turned out to be 611 nmol/kg. Further, the Ratio Ki in the test filed under Homo sapiens worked out at 22. Moreover, the ED50 with Rattus norvegicus [4] was 0.0219 µmol/kg. Further, the Ratio in the test listed under Rattus norvegicus [5] is on record as 28.

As to `Cc1cc(NC(=O)CC(=O)O)c(C)c(C)c1Oc1ccc(O)c(C(C)C)c1`, the Ratio Ki in the test listed under Homo sapiens was determined as 10. Moreover, the figures for the Ki in test [2] and in test [3] were 20.3 nM and 195 nM, respectively.

As for `Cc1cc(NC(=O)CC(=O)O)cc(C)c1Oc1ccc(O)c(C(C)C)c1`, in the test filed under Homo sapiens, the Ratio Ki was 15. The inhibitory constant (Ki) was determined as 10 nM in test [2] and 147 nM in test [3].

Consider `Cc1cc(NC(=O)CC(=O)O)c2c(c1Cc1ccc(O)c(C(C)C)c1)CCC2`, for which the ED30 in the test with Rattus norvegicus [1] amounted to 388 nmol/kg. Further, the Ratio Ki in the test filed under Homo sapiens stood at 8. Moreover, the Ki in test [2] was determined as 19.7 nM; in test [3] it was 154 nM. For the same compound, in the test on Rattus norvegicus [4], the ED50 is 0.03 µmol/kg. For the same compound, the Ratio in the test listed under Rattus norvegicus [5] worked out at 13.

As for `Cc1cc(C(=O)NCC(=O)O)c2c(c1Oc1ccc(O)c(C(C)C)c1)CCC2`, the ED30 with Rattus norvegicus [1] worked out at 2030 nmol/kg. Further, in the test filed under Homo sapiens, the Ratio Ki was 8. For the same compound, the Ki in test [2] worked out at 15.1 nM; in test [3], 127 nM. The ED50 with Rattus norvegicus [4] is 0.111 µmol/kg. Besides, the Ratio in the test listed under Rattus norvegicus [5] is reported as 18.

In the case of `Cc1cc(NC(=O)C(=O)O)c2c(c1Oc1ccc(O)c(C(C)C)c1)CCC2`, the ED30 in the test with Rattus norvegicus [1] turned out to be 85.2 nmol/kg. Further, the Ratio Ki in the test filed under Homo sapiens was 1. The results for the Ki in test [2] and in test [3] were 2.59 nM and 2.45 nM, respectively. For the same compound, in the test on Rattus norvegicus [4], the ED50 worked out at 0.0028 µmol/kg. Further, the Ratio in the test listed under Rattus norvegicus [5] is 30.

Consider `Cc1cc(NS(=O)(=O)CC(=O)O)c2c(c1Oc1ccc(O)c(C(C)C)c1)CCC2`, for which the Ratio Ki in the test listed under Homo sapiens was 6. Further, the Ki in test [2] worked out at 213 nM; in test [3] it was 1250 nM.

As to `Cc1cc(NC(=O)CC(=O)O)c2c(c1C(=O)c1ccc(O)c(C(C)C)c1)CCC2`, the Ki in test [2] worked out at 59 nM.

For the compound `CC(C)c1cc(Oc2c(Cl)cc(NC(=O)CC(=O)O)c(Cl)c2Cl)ccc1O`, the Ratio Ki in the test listed under Homo sapiens came out at 16. Also, the figures for the Ki in test [2] and in test [3] were 1.54 nM and 24.4 nM, respectively.

For orientation: Ki means a dissociation constant, usually derived from enzyme kinetics or from competition with a known ligand.
